Entries after “also recorded” stand apart in the source; their conditions may differ.
How the values were obtained:
[1] = test system: NF-κB; assay: NF-κB activation by TPA in human cells expressing very low levels of PPAR-γ; assay type: cell-based; settings: human cells with very low PPAR-γ, data not shown
[2] = test system: activated monocytes; settings: cited from earlier work
[3] = molecular target: JNK (Homo sapiens, UniProt P45983); assay: JNK activity in HeLa cells; assay type: cell-based; set-up: endogenous in cells; settings: even in the absence of TNFα
Protocol: (§1) Cells used in the experiments described herein were cultured in either RPMI 1640 (Jurkat cells) or DMEM (HeLa and COS cells), supplemented with 10% FBS and antibiotics. Cells were stimulated with either 25 ng/ml TPA, 20 ng/ml recombinant TNFα, or 10 ng/ml interleukin 1β (Sigma). PGA1, 15dPGJ2, T×B2, LTB4, AA and other PGs (Cayman) dissolved in ethanol were used as well, as known in the art (See e.g., Rossi et al., 94:746-750 [1997]). Controls received equal amounts of ethanol. Transfections were performed using Lipofectamine Plus (GIBCO) for HeLa and COS cells and DEAE-dextran (Sigma) for Jurkat cells. Xpress-tagged NIK, Xpress-tagged MEKK1, HA-tagged IKKα, and HA-tagged IKKβ were also used (See e.g., Zandi et al., Science 281:1360-1363 [1998]; and Delhase et al., Science 284:309-313 [1999]). COX2 and cPLA2 expression vectors were obtained from Dr. L. Feng (See also, Hirose et al., J. Am. Soc. Nephrol., 9:408-416 [1998]). PGD synthase was cloned from HT29 colon carcinoma cell line cDNA by PCR and subcloned into a pCDNA3 vector. […]
(§2) Cell lysates were incubated with anti-IKKα (Pharmingen), anti-HA (12CA5; Pharmingen), anti-JNK1 (333.8; Pharmingen), or anti-p38 (New England Biolabs) for 2 hours. […] Endogenous IKK, HA-tagged IKKα, endogenous JNK1, and p38 activities were determined with GST-1κBα(1-54), GST-c-Jun(1-79), and GST-ATF2 as substrates.

[4] = molecular target: T1, IKKβ(C179A) (Homo sapiens, UniProt O14920, C179A); assay: 2XNFκB-LUC reporter in HeLa cells with NIK and IKKβ(C179A); assay type: cell-based; set-up: FLAG; made in house; settings: luciferase at 24 hours, FIG. 6E
T1 sequence (O14920 1-756 C179A): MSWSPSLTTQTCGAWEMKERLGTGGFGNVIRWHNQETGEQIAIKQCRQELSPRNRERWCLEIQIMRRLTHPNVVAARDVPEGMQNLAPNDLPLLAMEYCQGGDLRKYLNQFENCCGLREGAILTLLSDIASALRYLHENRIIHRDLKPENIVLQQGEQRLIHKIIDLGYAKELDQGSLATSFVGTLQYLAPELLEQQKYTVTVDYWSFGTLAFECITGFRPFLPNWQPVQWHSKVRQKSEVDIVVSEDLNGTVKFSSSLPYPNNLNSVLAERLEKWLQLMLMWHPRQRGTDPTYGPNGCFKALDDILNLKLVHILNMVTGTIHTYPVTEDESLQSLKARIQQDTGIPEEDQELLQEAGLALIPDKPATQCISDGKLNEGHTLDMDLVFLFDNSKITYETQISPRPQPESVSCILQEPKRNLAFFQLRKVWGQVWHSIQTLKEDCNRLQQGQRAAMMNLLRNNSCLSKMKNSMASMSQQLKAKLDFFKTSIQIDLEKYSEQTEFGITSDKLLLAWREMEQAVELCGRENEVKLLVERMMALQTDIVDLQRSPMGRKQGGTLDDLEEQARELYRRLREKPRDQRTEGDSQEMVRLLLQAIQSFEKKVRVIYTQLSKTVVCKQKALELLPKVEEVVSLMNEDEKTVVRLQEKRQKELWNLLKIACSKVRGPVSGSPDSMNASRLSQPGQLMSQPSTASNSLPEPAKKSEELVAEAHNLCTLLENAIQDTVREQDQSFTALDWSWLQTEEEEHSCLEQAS
Protocol: Recombinant IKKβ(C179A) was also resistant to concentrations of 15dPGJ2 that were inhibitory to wild-type IKKβ (as shown in FIG. 6D), and also to PGA1. An NF-κB dependent transcriptional reporter (2XNFκB-LUC) was preincubated with expression vector encoding either wild-type IKKβ or IKKβ(C179A). A NIK expression vector was included to ensure maximal IKK activation. […] FIG. 6E provides the results for HeLa cells transiently transfected with a 2×NF-κB-LUC reporter, a NIK expression vector and expression vectors for wild type IKKβ or IKKβ(C179A). At 3 hours post-transfection, cells were treated with 15dPGJ2 and at 24 hours, the luciferase activities were determined for duplicate samples. In each case, the maximal activity achieved in the absence of inhibitor was given an arbitrary value of 100% and the other values were calculated relative to this one.

[5] = molecular target: T2, JNK1 (Homo sapiens, UniProt P45983); assay: In vitro JNK1 kinase activity; assay type: biochemical; settings: in vitro incubation with up to 60 μM
T2 construct: Endogenous IKK, HA-tagged IKKα, endogenous JNK1, and p38 activities were determined; endogenous in cells
Protocol: Cell lysates were incubated with anti-IKKα (Pharmingen), anti-HA (12CA5; Pharmingen), anti-JNK1 (333.8; Pharmingen), or anti-p38 (New England Biolabs) for 2 hours. Then, 15 μl protein A-Sepharose (Sigma) were added and the mixture was allowed to incubate for 1 hour. After extensive washing, kinase assays were performed as known in the art (See e.g., DiDonato et al., Nature 388:548-554 [1997]). Endogenous IKK, HA-tagged IKKα, endogenous JNK1, and p38 activities were determined with GST-1κBα(1-54), GST-c-Jun(1-79), and GST-ATF2 as substrates.
Endogenous IKK was immunoprecipitated from TNFα-stimulated HeLa cells and the kinase activity determined in the presence of different concentrations of PGA1 (the results of which are shown in FIG. 2B) or 15dPGJ2 (the results of which are shown in FIG. 2C).

[6] = molecular target: T3, IKKα (Homo sapiens, UniProt O14920+O15111); assay: NIK-induced HA-tagged IKKα associated kinase activity in COS cells; assay type: cell-based; settings: PGA1 added immediately after or 18 hours after transfection
T3 construct: expressed in transfected cells; host or cells: COS
Protocol: as §1, §2

[7] = molecular target: IKK (Homo sapiens, UniProt O14920+O15111); assay: MEKK1-induced IKK activity in Jurkat cells; assay type: cell-based; settings: data not shown
Protocol: as §1, §2

[8] = test system: IKK; assay: NIK-induced endogenous IKK activity in transfected COS cells; assay type: cell-based; settings: PGA1 added 10 min or 18 h after transfection
Protocol: as §1, §2

T3 sequence (O15111 whole entry): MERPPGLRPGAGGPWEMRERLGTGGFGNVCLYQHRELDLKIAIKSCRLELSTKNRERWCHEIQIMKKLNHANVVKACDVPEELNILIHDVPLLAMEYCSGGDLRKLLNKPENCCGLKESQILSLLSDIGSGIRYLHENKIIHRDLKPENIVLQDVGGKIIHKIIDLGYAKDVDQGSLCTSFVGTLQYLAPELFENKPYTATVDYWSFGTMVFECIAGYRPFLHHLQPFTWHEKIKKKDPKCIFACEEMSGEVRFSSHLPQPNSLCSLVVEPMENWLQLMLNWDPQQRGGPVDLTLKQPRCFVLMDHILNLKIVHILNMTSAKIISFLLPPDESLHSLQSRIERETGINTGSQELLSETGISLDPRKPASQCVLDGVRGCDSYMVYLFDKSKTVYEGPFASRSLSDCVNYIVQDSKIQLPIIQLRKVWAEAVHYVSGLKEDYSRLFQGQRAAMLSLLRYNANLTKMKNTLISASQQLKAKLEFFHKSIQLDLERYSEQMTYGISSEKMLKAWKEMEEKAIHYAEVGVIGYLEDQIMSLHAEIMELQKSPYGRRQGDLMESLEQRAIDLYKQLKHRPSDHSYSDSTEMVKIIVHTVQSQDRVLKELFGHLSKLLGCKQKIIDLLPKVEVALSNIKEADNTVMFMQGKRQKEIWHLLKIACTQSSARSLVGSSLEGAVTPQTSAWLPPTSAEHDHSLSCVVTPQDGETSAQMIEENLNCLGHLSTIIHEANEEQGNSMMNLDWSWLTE
T3 sequence (O14920 whole entry): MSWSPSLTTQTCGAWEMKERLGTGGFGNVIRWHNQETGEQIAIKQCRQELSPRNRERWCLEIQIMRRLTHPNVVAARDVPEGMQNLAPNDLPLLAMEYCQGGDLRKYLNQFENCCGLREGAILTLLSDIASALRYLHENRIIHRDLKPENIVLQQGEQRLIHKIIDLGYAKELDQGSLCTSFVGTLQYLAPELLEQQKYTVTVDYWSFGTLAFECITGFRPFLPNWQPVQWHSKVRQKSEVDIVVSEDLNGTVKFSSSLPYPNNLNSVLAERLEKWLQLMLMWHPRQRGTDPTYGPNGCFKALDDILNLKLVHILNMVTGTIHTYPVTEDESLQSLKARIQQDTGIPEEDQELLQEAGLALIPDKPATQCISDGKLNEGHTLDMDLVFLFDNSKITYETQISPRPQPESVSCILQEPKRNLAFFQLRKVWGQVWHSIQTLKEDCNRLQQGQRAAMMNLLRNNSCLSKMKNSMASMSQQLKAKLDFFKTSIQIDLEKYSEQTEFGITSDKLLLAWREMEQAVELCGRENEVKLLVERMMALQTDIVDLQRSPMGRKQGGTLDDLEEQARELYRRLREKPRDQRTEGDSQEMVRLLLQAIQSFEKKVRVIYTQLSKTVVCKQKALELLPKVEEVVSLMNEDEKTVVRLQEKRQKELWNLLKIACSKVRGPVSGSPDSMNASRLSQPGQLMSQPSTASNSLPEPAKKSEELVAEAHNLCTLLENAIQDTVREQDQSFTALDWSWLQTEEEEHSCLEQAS
T3 sequence (Q9Y6K9 whole entry partner): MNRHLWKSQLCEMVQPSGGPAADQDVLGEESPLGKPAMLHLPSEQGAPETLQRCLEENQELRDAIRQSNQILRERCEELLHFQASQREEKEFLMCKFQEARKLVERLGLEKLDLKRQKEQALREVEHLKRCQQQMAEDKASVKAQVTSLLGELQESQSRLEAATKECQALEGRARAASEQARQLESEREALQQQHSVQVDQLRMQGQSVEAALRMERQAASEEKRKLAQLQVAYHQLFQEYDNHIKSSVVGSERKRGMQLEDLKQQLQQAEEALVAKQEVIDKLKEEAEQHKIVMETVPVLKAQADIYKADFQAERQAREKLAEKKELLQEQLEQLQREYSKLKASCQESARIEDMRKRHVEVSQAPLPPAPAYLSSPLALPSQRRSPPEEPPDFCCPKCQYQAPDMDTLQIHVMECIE
Chain of IKK (Homo sapiens, UniProt O14920+O15111) (O14920 whole entry): as the sequence (O14920 whole entry) above
Chain of IKK (Homo sapiens, UniProt O14920+O15111) (O15111 whole entry): as the sequence (O15111 whole entry) above
Chain of IKK (Homo sapiens, UniProt O14920+O15111) (Q9Y6K9 whole entry partner): as the sequence (Q9Y6K9 whole entry partner) above
T2 sequence (P45983 whole entry): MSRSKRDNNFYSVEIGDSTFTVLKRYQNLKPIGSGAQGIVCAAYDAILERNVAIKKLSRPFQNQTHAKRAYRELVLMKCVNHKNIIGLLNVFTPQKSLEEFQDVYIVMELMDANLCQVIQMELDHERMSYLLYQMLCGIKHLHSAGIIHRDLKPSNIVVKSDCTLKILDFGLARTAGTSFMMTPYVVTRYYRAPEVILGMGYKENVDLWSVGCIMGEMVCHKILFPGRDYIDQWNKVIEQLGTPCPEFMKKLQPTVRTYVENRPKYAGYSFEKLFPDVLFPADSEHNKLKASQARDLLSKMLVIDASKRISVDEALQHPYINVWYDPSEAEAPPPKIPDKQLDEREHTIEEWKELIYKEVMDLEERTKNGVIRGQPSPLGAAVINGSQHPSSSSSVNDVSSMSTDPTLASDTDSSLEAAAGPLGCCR
Chain of JNK (P45983 whole entry): as above

effect on JNK activity [3]	sensitivity of NF-κB activation through IKKβ(C179A) [4]	inhibition of JNK1 activity in vitro [5]	effect on NIK-induced IKK activity (HA-IKKα) [6]	effect on MEKK1-induced IKK activity [7]	SMILES	inhibition of NF-κB activation by TPA [1]	production of pro-inflammatory cytokines [2]	effect on NIK-induced activation of endogenous IKK activity [8]
stimulated	insensitive	No significant inhibition			CCCCC/C=C/C=C1/C(=O)C=C[C@@H]1C/C=C\CCCC(=O)O [15dPGJ2, 15-deoxy-Δ^12-14-PGJ2]	potent inhibitor	inhibits	
			inhibited	inhibited	CCCCC[C@H](O)/C=C/[C@H]1C=CC(=O)C1CCCCCCC(=O)O (some centres unmarked) [PGA1, prostaglandin A1]			inhibited; also recorded: prevents

Source: patent US6649654B1, “Methods for identifying and using IKK inhibitors” (The Regents of the University of California, priority 1999, dated 2003)
